# Source: patent US20100056524A1, “Compound” (priority 2008, published 2010)
# Where a name gives a salt, the structure may show the parent alone. Read-outs that look alike come from different tables or passages of the source.
# How the values were obtained:
# Assay type in all cases: biochemical
# PKD1 = target: T1, PKD1 (Homo sapiens, UniProt Q15139); experiment: PKD1 protein kinase assay; conditions: for remaining activity at 10 µM: 10 μM compound; for residual kinase activity PKD1: 1 μm compound; for remaining activity at 1 µM: 1 μM compound
# T1 construct: All protein kinases were of human origin and encoded full length proteins, unless indicated otherwise; made in house
# T1 sequence (Q15139 1-912): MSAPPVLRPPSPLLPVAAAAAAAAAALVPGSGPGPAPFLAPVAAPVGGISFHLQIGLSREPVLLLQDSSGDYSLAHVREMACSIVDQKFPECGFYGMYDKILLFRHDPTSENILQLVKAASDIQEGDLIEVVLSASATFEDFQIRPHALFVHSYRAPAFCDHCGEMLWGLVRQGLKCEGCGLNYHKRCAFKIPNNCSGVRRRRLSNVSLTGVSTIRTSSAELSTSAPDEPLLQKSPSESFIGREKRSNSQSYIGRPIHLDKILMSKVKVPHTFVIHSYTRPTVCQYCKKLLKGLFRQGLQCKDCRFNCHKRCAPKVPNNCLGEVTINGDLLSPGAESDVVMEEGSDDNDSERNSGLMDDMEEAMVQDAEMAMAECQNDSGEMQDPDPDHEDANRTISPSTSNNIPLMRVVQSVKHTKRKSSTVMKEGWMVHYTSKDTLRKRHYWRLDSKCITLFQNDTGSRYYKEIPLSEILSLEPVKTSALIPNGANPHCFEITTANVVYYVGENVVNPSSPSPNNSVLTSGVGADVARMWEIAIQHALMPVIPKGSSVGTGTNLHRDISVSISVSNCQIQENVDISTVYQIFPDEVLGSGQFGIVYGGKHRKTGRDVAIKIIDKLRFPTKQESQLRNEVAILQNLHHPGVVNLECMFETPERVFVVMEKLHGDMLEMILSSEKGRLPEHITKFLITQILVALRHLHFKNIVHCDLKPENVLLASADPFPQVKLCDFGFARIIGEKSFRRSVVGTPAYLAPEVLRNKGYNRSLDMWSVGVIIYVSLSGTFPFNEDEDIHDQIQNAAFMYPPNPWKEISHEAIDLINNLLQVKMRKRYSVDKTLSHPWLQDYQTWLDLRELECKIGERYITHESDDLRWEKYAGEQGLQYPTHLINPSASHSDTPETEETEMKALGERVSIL
# From the text: (§1) All protein kinases were of human origin and encoded full length proteins, unless indicated otherwise. They were either expressed as glutathione S-transferase (GST) fusion proteins in Escherichia Coli or as hexahistidine (His6)-tagged proteins in insect Sf21 cells. GST fusion proteins were purified by affinity chromatography on glutathione-Sepharose, and His6-tagged proteins on nickel/nitriloacetate-agarose. The procedures for expressing some of the protein kinases used herein have been detailed previously.^8,9 The following sections outline the DNA vectors synthesised and the procedures used to express and purifying protein kinases that have not been reported previously.
# (§2) All assays (25.5 μl) were carried out at room temperature (21° C.) and were linear with respect to time and enzyme concentration under the conditions used. Assays were performed for 30 min using Multidrop Micro reagent dispensers (Thermo Electron Corporation, Waltham, Mass. 02454, USA) in a 96-well format. The concentration of magnesium acetate in the assays was 10 mM and the [γ-33P] ATP (800 cpm/pmol) was used at 5, 20 or 50 μM as indicated, in order to be at or below the Km for ATP for each enzyme. Protein kinases assayed at 5 μM ATP were: —ERK1, ERK8, PKBα, MARK3, Aurora C. Protein kinases assayed at 20 μM ATP were: —JNK1, PDK1, CHK1, CHK2, CDK2 and Aurora B. Protein kinases assayed at 50 μM ATP were: —MNK2, IKKepsilon and TBK1.
# (§3) The assays were initiated with MgATP, stopped by addition of 5 μl of 0.5 M orthophosphoric acid and spotted on to P81 filterplates using a unifilter harvester (PerkinElmer, Boston, Mass. 02118, USA). The IC50 values of inhibitors were determined after carrying out assays at 10 different concentrations of each compound.
# (§4) Unless stated otherwise, enzymes were diluted in 50 mM Tris/HCl pH 7.5, 0.1 mM EGTA, 1 mg/ml BSA, 0.1% (v/v) 2-mercaptoethanol and assayed in 50 mM Tris/HCl pH 7.5, 0.1 mM EGTA, 0.1% (v/v) 2-mercaptoethanol.
# MARK3 = target: T2, MARK3 (Homo sapiens, UniProt P27448); experiment: MARK3 protein kinase assay; conditions: for remaining activity at 10 µM: 10 μM compound; for residual kinase activity MARK3: 1 μm compound; for remaining activity at 1 µM: 1 μM compound
# T2 construct: All protein kinases were of human origin and encoded full length proteins, unless indicated otherwise; His6; made in house; host or cells: Sf21 insect cells
# From the text: as §1
# The following kinases were expressed in Sf21 cells: Aurora B and Aurora C, extra-cellular signal-regulated kinase 8 (ERK8), microtubule affinity regulating kinase 3 (MARK3), protein kinase Bα[118-480][S473D], protein kinase Bβ (PKBβ[120-481][S474D], 3-phosphoinositide-dependent protein kinase-1 [52-556]
# as §2, §3
# (§5) ERK1 and ERK8 were both assayed against myelin basic protein (MBP, 0.33 mg/ml). MARK3 was assayed against the peptide […] (300 μM), MNK2 against the eIF4E protein (0.5 mg/ml). PKBβ was assayed against the peptide […] (30 μM). TBK1 were assayed against ([…]) (300 μM). The substrates used for other protein kinases were described previously.^8,9
# as §4
# MNK2 = target: T3, MNK2 (Homo sapiens, UniProt Q9HBH9); experiment: MNK2 protein kinase assay; conditions: for remaining activity at 10 µM: 10 μM compound; for residual kinase activity MNK2: 1 μm compound; for remaining activity at 1 µM: 1 μM compound
# T3 construct: All protein kinases were of human origin and encoded full length proteins, unless indicated otherwise; GST; made in house; host or cells: E. coli
# From the text: as §1
# The following proteins were expressed in E. coli: —CHK2[5-543], cyclin-dependent protein kinase 2 (CDK2), MAP kinase-interacting kinase 2 (MNK2), extra-cellular signal-regulated kinase 1 (ERK1).
# In order to produce activated forms of Aurora B and Aurora C, insect Sf21 cells were incubated for 1 h with the protein phosphatase inhibitor okadaic acid (50 nM). JNK isoforms were activated with MKK4 and MKK7, MNK2 with p38α MAPkinase; PKBα, PKBβ, with PDK1, and ERK1 with MKK1. To activate CDK2, bacterial pellets expressing cyclin A2 and CDK2 were mixed together, lyse and purified on glutathione Sepharose. The GST-tags were removed by cleavage with PreScission protease and the CDK2-cyclin A2 complex purified by chromatography on SP-Sepharose. It was then activated with CAK1/CDK7 followed by chromatography on nickel-nitrilotriacetate agarose to remove CAK1/CDK7, which binds to this column by virtue of its C-terminal His6 tag. All the other protein kinases were active as expressed.
# as §2, §3, §5, §4
# [1] = read-out: residual kinase activity PKD1
# [2] = read-out: residual kinase activity MARK3
# [3] = read-out: residual kinase activity MNK2
# [4] = PKD1, read-out: residual kinase activity
# [5] = MARK3, 5 μM ATP, read-out: residual kinase activity
# [6] = MNK2, 50 μM ATP, read-out: residual kinase activity
# T2 sequence (P27448 whole entry): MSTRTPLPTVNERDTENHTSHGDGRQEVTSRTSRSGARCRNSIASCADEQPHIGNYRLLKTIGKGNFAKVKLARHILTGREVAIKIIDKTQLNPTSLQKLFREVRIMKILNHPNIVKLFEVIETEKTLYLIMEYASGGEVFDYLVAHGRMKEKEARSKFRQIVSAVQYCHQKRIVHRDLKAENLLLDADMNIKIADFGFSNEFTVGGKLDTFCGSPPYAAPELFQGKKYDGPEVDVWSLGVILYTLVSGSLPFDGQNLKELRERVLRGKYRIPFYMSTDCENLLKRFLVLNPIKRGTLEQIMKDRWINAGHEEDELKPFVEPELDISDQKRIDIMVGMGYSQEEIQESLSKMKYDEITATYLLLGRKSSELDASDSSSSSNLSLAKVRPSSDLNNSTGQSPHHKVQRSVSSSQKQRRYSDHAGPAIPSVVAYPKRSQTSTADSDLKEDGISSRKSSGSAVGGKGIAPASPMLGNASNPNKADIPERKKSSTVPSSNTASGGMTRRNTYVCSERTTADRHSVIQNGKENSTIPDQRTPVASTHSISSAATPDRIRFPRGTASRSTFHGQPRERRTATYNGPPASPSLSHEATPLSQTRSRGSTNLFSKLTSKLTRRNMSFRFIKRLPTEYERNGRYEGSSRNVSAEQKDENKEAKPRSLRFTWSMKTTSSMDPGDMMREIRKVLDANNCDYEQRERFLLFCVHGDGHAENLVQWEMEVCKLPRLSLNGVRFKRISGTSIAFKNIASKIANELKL
# T3 sequence (Q9HBH9 whole entry): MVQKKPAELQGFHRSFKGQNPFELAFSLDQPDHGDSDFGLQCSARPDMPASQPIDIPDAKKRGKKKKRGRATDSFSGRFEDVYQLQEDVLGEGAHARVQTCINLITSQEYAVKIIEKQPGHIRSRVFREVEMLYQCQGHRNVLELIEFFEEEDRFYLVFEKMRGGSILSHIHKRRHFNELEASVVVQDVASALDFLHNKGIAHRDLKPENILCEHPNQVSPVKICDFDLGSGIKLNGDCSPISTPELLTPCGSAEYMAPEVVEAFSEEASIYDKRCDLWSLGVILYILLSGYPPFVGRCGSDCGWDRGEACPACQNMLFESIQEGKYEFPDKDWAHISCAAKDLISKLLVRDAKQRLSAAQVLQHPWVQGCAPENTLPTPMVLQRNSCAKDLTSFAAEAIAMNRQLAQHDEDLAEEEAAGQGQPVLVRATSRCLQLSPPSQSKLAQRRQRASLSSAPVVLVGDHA
SMILES,remaining activity at 10 µM (PKD1; [1]) [%],residual kinase activity PKD1 (PKD1) [%],remaining activity at 10 µM (MARK3; [2]) [%],residual kinase activity MARK3 (MARK3) [%],remaining activity at 10 µM (MNK2; [3]) [%],residual kinase activity MNK2 (MNK2) [%],remaining activity at 1 µM (PKD1; [4]) [%],remaining activity at 10 µM (PKD1; [4]) [%],remaining activity at 1 µM (MARK3; [5]) [%],remaining activity at 10 µM (MARK3; [5]) [%],remaining activity at 1 µM (MNK2; [6]) [%],remaining activity at 10 µM (MNK2; [6]) [%]
"O=C(NCCCNc1nc(Nc2cccc(F)c2)ncc1Br)C1CCC1 [Compound A, cyclobutanecarboxylic acid {3-[5-bromo-2-(3-fluoro-phenylamino)-pyrimidin-4-ylamino]-propyl}-amide, reference compound]",1,7,2,3,7,6,–,–,–,–,–,–
"O=C(NCCCNc1nc(Nc2cccc(F)c2)ncc1C1CC1)C1CCC1 [Example 23, Cyclobutanecarboxylic acid {3-[5-cyclopropyl-2-(3-fluoro-phenylamino)-pyrimidin-4-ylamino]-propyl}-amide]",53,68,1,0,10,39,68,53,0,1,39,10
"O=C(NCCCNc1nc(Nc2cccc(N3CCCC3=O)c2)ncc1C1CC1)c1cccs1 [Example 47, Thiophene-2-carboxylic acid (3-{5-cyclopropyl-2-[3-(2-oxo-pyrrolidin-1-yl)-phenylamino]-pyrimidin-4-ylamino}-propyl)-amide. Hydrochloride salt]",–,–,–,–,–,–,57,52,15,4,36,16
"O=C(NCCCNc1nc(Nc2cccnc2)ncc1C1CC1)c1cccs1 [Example 50, Thiophene-2-carboxylic acid {3-[5-cyclopropyl-2-(pyridin-3-ylamino)-pyrimidin-4-ylamino]-propyl}-amide]",–,–,–,–,–,–,60,36,13,2,56,21
